Experimental data reported in patent US9790233B2, “Compositions and methods of modulating 15-PGDH activity” (CASE WESTERN RESERVE UNIVERSITY, priority 2012, dated 2017).
Read-outs that look alike come from different tables or passages of the source.

Columns and labels:
[1] = test system: 15-PGDH luciferase fusion construct in Vaco503 reporter cell line; assay: 15-PGDH-luciferase fusion gene reporter induction, V503 cells; format: cell-based
A549 cells [2] = assay: PGE2 levels in the medium of IL1-beta stimulated A549 cells; format: cell-based; details: for Decrease PGE-2 (IL-1beta-A549, %): media of IL-1beta stimulated A549 cells;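 for all read-outs here: PGE2 in the collected culture medium quantified by enzyme immunoassay (ELISA), with data drawn from three independent experiments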
[3] = test system: 15-PGDH luciferase fusion construct in LS174T reporter cell line; assay: 15-PGDH-luciferase fusion gene reporter induction, LS174T cells; format: cell-based; details: Homo sapiens
A549 cells [4] = assay: Cellular toxicity on A549 cells (CellTiter-Glo); format: cell-based; parameters: Decrease Cell viability in A549 cell (%): concentration or dose not given beside the values; details: for Decrease Cell viability in A549 cell (%): A549 cells
[5] = test system: 15-PGDH luciferase fusion construct in V9m reporter cell line; assay: 15-PGDH-luciferase fusion gene reporter induction, V9m cells; format: cell-based
15-PGDH protein = 15-PGDH protein (Homo sapiens (Human), UniProt P15428); assay: Inhibition of enzymatic activity of recombinant 15-PGDH in vitro (tritium transfer from PGE2 or NADH fluorescence); format: biochemical
[6] = test system: 15-PGDH-luciferase fusion reporter in V9m, LS174T and V503 cells; assay: 15-PGDH-luciferase fusion gene reporter induction, stated for the three cell line backgrounds together; format: cell-based; details: for induction of 15-PGDH-luciferase reporter in cell lines (SW054384 analogues): […] and […]
[7] = read-out: V503-3H9-7 reporter activity, % ([…]), V503 reporter cells, […] compound, % induction of luciferase activity over basal level, read-out: V503-3H9-7 reporter activity, % (2.5 μM)
[8] = read-out: V503-3H9-7 reporter activity, % ([…]), V503 reporter cells, […] compound, % induction of luciferase activity over basal level, read-out: V503-3H9-7 reporter activity, % (7.5 μM)
[9] = read-out: Ls174T-SC1 reporter activity, % ([…]), LS174T reporter cells, […] compound, % induction of luciferase activity over basal level, read-out: Ls174T-SC1 reporter activity, % (2.5 μM)
[10] = read-out: Ls174T-SC1 reporter activity, % ([…]), LS174T reporter cells, […] compound, % induction of luciferase activity over basal level, read-out: Ls174T-SC1 reporter activity, % (7.5 μM)
[11] = read-out: V9M-SC3 Reporter activity ([…]) (%), V9m reporter cells, […] compound, % induction of luciferase activity over basal level, read-out: V9M-SC3 Reporter activity (2.5 μM) (%)
[12] = read-out: V9M-SC3 Reporter activity ([…]), %, V9m reporter cells, […] compound, % induction of luciferase activity over basal level, read-out: V9M-SC3 Reporter activity (7.5 μM), %

Sequence of 15-PGDH protein (P15428 whole entry, the tested form may be a part): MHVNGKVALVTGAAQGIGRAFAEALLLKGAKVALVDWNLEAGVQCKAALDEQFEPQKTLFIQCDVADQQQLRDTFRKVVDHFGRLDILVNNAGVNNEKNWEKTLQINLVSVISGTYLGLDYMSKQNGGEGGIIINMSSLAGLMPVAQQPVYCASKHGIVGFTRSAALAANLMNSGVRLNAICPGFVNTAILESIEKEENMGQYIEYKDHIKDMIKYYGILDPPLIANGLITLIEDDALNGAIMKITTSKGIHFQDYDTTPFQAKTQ

Compound: COc1ccc(OC)c(N(CC(=O)Nc2nccs2)S(=O)(=O)c2ccccc2)c1 [SW203691]
- activation at […] [1, 7]: 47.1%
- activation at […] [1, 8]: 90%
- Decrease PGE-2 (IL-1beta-A549, %) (A549 cells [2]): 36.76%
- activation at […] [3, 9]: 5.47%
- activation at […] [3, 10]: 22%
- Decrease Cell viability in A549 cell (%) (A549 cells [4]): 0.00%
- activation at […] [5, 11]: 7.78%
- activation at […] [5, 12]: 19.8%
- inhibition at […] (15-PGDH protein; read-out: Enzyme inhibition % ([…]), recombinant 15-PGDH, […] compound, read-out: Enzyme inhibition % (7.5 μM)): 3.12%

Compound: COc1ccc(OC)c(N(CC(=O)Nc2csnc2C)S(=O)(=O)c2ccccc2)c1 [SW203703]
- activation at […] [1, 7]: 143%
- activation at […] [1, 8]: 78%
- lowering of PGE2 levels in media (A549 cells [2]): show activity in lowering PGE2
- Decrease PGE-2 (IL-1beta-A549, %) (A549 cells [2]): 31.90%
- activation at […] [3, 9]: 85.8%
- activation at […] [3, 10]: 80.2%
- induction of 15-PGDH-luciferase reporter in cell lines (SW054384 analogues) [6]: active in inducing the 15-PGDH-luciferase reporter
- Decrease Cell viability in A549 cell (%) (A549 cells [4]): −1.97%
- activation at […] [5, 11]: 108%
- activation at […] [5, 12]: 106%

Compound: COc1ccc(OC)c(N(CC(=O)Nc2cc(C)no2)S(=O)(=O)c2ccccc2)c1 [SW203704]
- activation at […] [1, 7]: 52.8%
- activation at […] [1, 8]: 37.8%
- Decrease PGE-2 (IL-1beta-A549, %) (A549 cells [2]): 22.33%
- activation at […] [3, 9]: 8.64%
- activation at […] [3, 10]: 12.5%
- induction of 15-PGDH-luciferase reporter in cell lines (SW054384 analogues) [6]: active in inducing the 15-PGDH-luciferase reporter
- Decrease Cell viability in A549 cell (%) (A549 cells [4]): −2.70%
- activation at […] [5, 11]: 8.71%
- activation at […] [5, 12]: 8.04%

Compound: COc1ccc(OC)c(N(CC(=O)Nc2cccnc2)S(=O)(=O)c2ccc(F)cc2)c1 [SW203736]
- activation at […] [1, 7]: 244%
- activation at […] [1, 8]: 204%
- lowering of PGE2 levels in media (A549 cells [2]): show activity in lowering PGE2
- Decrease PGE-2 (IL-1beta-A549, %) (A549 cells [2]): 31.86%
- activation at […] [3, 9]: 127%
- activation at […] [3, 10]: 156%
- Decrease Cell viability in A549 cell (%) (A549 cells [4]): −3.06%
- activation at […] [5, 11]: 132%
- activation at […] [5, 12]: 145%

Compound: COc1ccc(OC)c(N(CC(=O)Nc2cccnc2)S(=O)(=O)c2ccc(Br)cc2)c1 [SW203737]
- activation at […] [1, 7]: 176%
- activation at […] [1, 8]: 154%
- lowering of PGE2 levels in media (A549 cells [2]): show activity in lowering PGE2
- Decrease PGE-2 (IL-1beta-A549, %) (A549 cells [2]): 47.78%
- activation at […] [3, 9]: 76.7%
- activation at […] [3, 10]: 85.1%
- Decrease Cell viability in A549 cell (%) (A549 cells [4]): −2.56%
- activation at […] [5, 11]: 93.4%
- activation at […] [5, 12]: 103%

Compound: CCCC[S+]([O-])c1sc2nc(-c3nccs3)ccc2c1N (stereo not drawn) [SW206992, 2-(butylsulfinyl)-6-(thiazol-2-yl)thieno[2,3-b]pyridin-3-amine]
- compound concentration at maximal effect on PGE2 (A549 cells [2]; IL-1β 16 h, compound 8 h): 2.5 µM
- exposure needed to induce maximal reporter induction ([6]; 24 hours, three cell line backgrounds): > 1000 nM
- Concentration for Full Cell Line Reporter Induction ([6]; maximal induction of reporter, Table 3): >1 µM
- effect on CellTitre-Glo levels (A549 cells [4]; 24 hours, concentrations of up to 10 uM): No effect on CellTitre-Glo levels
- Toxicity (A549 cells [4]; concentration needed to decrease cell numbers in a cell culture assay, Table 3): >7.5 µM

Compound: COc1ccc(S(=O)(=O)N(CC(=O)N2CCCCC2)c2cc(OC)ccc2OC)cc1 [SW207999]
- activation at […] [1, 7]: 124%
- activation at […] [1, 8]: 110%
- activation at […] [3, 9]: 98%
- activation at […] [3, 10]: 123%
- induction of 15-PGDH-luciferase reporter in cell lines (SW054384 analogues) [6]: active in inducing the 15-PGDH-luciferase reporter
- activation at […] [5, 11]: 128%
- activation at […] [5, 12]: 124%

Compound: C[S+]([O-])c1sc2nc(-c3cccs3)cc(-c3ccccc3)c2c1N (stereo not drawn) [SW208079, 2-(methylsulfinyl)-4-phenyl-6-(thiophen-2-yl)thieno[2,3-b]pyridin-3-amine]
- activation at […] ([1]; read-out: V503 reporter activity ([…]), […], % increased luciferase activity over basal level, read-out: V503 reporter activity (2.5 uM)): 85.3%
- activation at […] ([1]; read-out: V503 reporter activity ([…]), […], % increased luciferase activity over basal level, read-out: V503 reporter activity (7.5 uM)): 61.8%
- activation at […] ([3]; read-out: LS174T reporter activity ([…]), […], % increased luciferase activity over basal level, read-out: LS174T reporter activity (2.5 uM)): 53.4%
- activation at […] ([3]; read-out: LS174T reporter activity ([…]), […], % increased luciferase activity over basal level, read-out: LS174T reporter activity (7.5 uM)): 43.8%
- reporter induction in reporter cell lines [6]: marked loss of activity in inducing the cell line reporters
- activation at […] ([5]; read-out: V9M reporter activity ([…]), […], % increased luciferase activity over basal level, 100 = doubling, read-out: V9M reporter activity (2.5 uM)): 36%
- activation at […] ([5]; read-out: V9M reporter activity ([…]), […], % increased luciferase activity over basal level, 100 = doubling, read-out: V9M reporter activity (7.5 uM)): 32.8%
- IC50 higher compared to SW033291 (15-PGDH protein; effect of carbon side chain length): over 60 fold
